# Reference: paper PMC5620620, “Comparison of In Vitro Assays in Selecting Radiotracers for In Vivo P-Glycoprotein PET Imaging” (Pharmaceuticals, 2017)
# Columns and labels:
# P-gp [1] = target: T1, P-gp (Homo sapiens, UniProt P08183); assay: Bidirectional transport of tritiated compounds in MDCKII-MDR1 cells; format: in vitro ADME; settings: for Substrate In Vitro: ER 0.01 µM; for P-gp substrate behaviour in vitro: concentrations 0.01-50 µM and inhibitors; for ER 0.01 µM: tritiated compound 0.01 µM, Papp B→A/Papp A→B; for Recovery of radioactivity: all experiments, A → B and B → A directions
# T1 construct: host or cells: MDCKII (canine kidney) cells transfected with human MDR1 cDNA
# Procedure: (§1) Madin-Darby canine kidney (MDCK) II cells expressing cDNAs encoding human MDR1 (MDCKII-MDR1 cells) were obtained by TNO from the Netherlands Cancer Institute. […] Cells were counted using an automatic cell counter (Millipore, Bedford, MA, USA). […] The medium was refreshed after 48 h. It has been shown, that under these conditions the human transporter protein MDR1 localizes on the apical plasma membrane of the cells.
# (§2) After three days of cell culture on Transwell, the MDCKII-MDR1 monolayers are expected to have developed a transepithelial electrical resistance (TEER) of approximately 70 Ωcm^2 higher than background (empty filter without cells). At the start of each study, TEER was measured to assess the integrity of the monolayers of MDCKII-MDR1 cells in culture medium using the Millicell-ERS epithelial voltohmmeter (Millipore). Monolayers with a TEER value less than 55 Ωcm^2 above background (empty filter) were excluded from the transport assay. […] Cell monolayers were also inspected with a microscope before starting the experiments.
# (§3) Transcellular transport studies were performed as described previously with minor modifications.
# (§4) After the integrity assessment, culture medium was removed from the filter inserts (apical compartment (A)). The inserts were washed once with warm (37 °C) HBSS, transferred to new 12-well plates which were preincubated with HBSS/HEPES for 18 h at 37 °C, to reduce non-specific binding to the plastic, and washed with warm HBSS. The MDR1-mediated apical to basolateral (A → B) transport in MDCKII-MDR1 cell monolayers was determined by addition of 0.65 mL of a tritiated compound in concentrations of 0.01, 1 and 50 µM to the apical compartment in triplicate. A volume of 1.8 mL of HBSS/HEPES was added to the basolateral compartment. To determine basolateral to apical (B → A) transport, 1.95 mL of a tritiated compound at concentrations of 0.01, 1 and 50 µM was added to the basolateral compartment and 0.5 ml of HBSS/HEPES to the apical compartment. A 150 µL aliquot of the apical (A → B) or basolateral (B → A) compartment was taken at the start of the experiment to measure the initial concentration and to calculate the recovery of radioactivity. […] Aliquots of the apical and basolateral samples (150 and 1600 µL for A → B and 400 and 150 µL for B → A, respectively) and samples of the initial concentration were mixed with 10 mL of liquid scintillant Ultima GoldTM (PerkinElmer Inc.). Radioactivity was determined by LSC on a Tri Carb 3100TR liquid scintillation counter using QuantaSmart^TM software (PerkinElmer Inc.) in which all counts were converted to disintegrations per minute (DPM) using tSIE/AEC (transformed spectral index of external standards coupled to automatic efficiency correction). Background values were measured for each sample sequence using liquid scintillant without test samples. Recovery of radioactivity was calculated as percentage of measured total radioactivity after the experiment versus initial radioactivity.
# (§5) Subsequently, the effects of MDR1-inhibitors ketoconazole and tariquidar on the bidirectional transport of the tested tritiated compounds were examined. Stock solutions of the inhibitors ketoconazole (10 mM) and tariquidar (10 mM) were prepared in DMSO. […] These concentrations were based on IC50 values that are known to block P-gp completely.
# (§6) A is the surface area of the filter insert (cm^2) and C0 the measured initial concentration, calculated from total DPM on the donor side at t = 0 min (DPM/L).
# (§7) To determine the ER for the test compounds, the following equation was used:ER = Papp B → A/Papp A → B(2)
# P-gp (MDR1) = target: T2, P-gp (MDR1) (Homo sapiens, UniProt P08183); assay: as above; format: in vitro ADME; settings: MDCK-MDR1; for efflux ratio at 2 h, 0.01 µM: human, read-out: ER 0.01 µM; for efflux ratio at 2 h, 1 µM / efflux ratio at 2 h, 50 µM: read-out: ER
# T2 construct: host or cells: MDCKII (canine kidney) cells transfected with human MDR1 cDNA
# Procedure: as §1, §2, §3, §4, §5, §6, §7
# P-gp [2] = target: T1, P-gp; assay: Calcein-AM inhibition assay in MDCKII-MDR1 cells; format: cell-based; settings: non-radioactive compounds
# Procedure: The calcein-AM experiment was performed in MDCKII-MDR1 cells according to methods described previously. Calcein cell accumulation in the absence and in the presence of test compounds (0,1, 1, 10, 30, 50 and 100 µM) was evaluated and the basal level of fluorescence was measured in untreated cells. EC50 values were determined by fitting the fluorescence increase (in %) versus log[dose].
# Log D7.4 = format: physicochemical; settings: pH 7.4, this study
# P-gp and/or Bcrp = assay: Brain uptake (microPET, biodistribution) in Mdr1a/b(−/−)Bcrp1(−/−) knockout versus wild-type mice; format: in vivo; settings: Mdr1a/b(−/−)Bcrp1(−/−) vs wild-type mice; for Difference in whole brain time-activity curves (SUV) between knockout and wild-type: AUC from 0 to 30 min; for P-gp substrate behaviour in vivo: tracer concentrations
# Excerpt: All animal studies were in compliance with the local ethical guidelines. Protocols (DEC 6456C) were approved by the Institutional Animal Care and Use Committee of the University of Groningen. Male FVB wild type mice (33 ± 2 g, 11–12 weeks) and Mdr1a/b^(−/−)Bcrp1^(−/−) constitutive knockout mice (31 ± 3 g, 11–12 weeks) developed from the FVB line were purchased from Taconic (Hudson, NY, USA). After arrival, animals were housed individually and acclimatized for at least 7 days in the Central Animal Facility of the University Medical Center Groningen before experiments. Mice had access to food and water ad libitum and were kept under a 12 h light-dark cycle. During experiments, mice were anesthetized with 2% isoflurane in medical air and kept at a constant temperature using electronically controlled heating pads.
# (§8) Mice were injected with radiotracers (3.5 ± 1.6 MBq, 0.1 mL, [^18F]MC198 or [^18F]KE64) in the penile vein under isoflurane anesthesia. Injections were performed with the mice in the microPET camera (microPET Focus 220, Siemens Medical Solutions, Malvern, PA, USA), simultaneously starting a 30 min dynamic emission scan. After each emission scan, a transmission scan of 515 s with a ^57Co point source was performed to correct the emission data for attenuation and scatter. Mice were terminated by cervical dislocation. Several organs and tissues were excised, weighed and radioactivity was measured in a γ-counter (LKB Wallac, Turku, Finland). Radioactivity accumulation in the organs was expressed as SUV, using the following formula: [tissue activity concentration (MBq/g)]/[injected dose (MBq)/body weight (g)]. Metabolites in the terminal plasma and brain samples were determined using a radio-TLC method described elsewhere. TLC-plates were eluted with ethylacetate/methanol 9:1 v/v (Rf [^18F]MC198 = 0.45, Rf[^18F]KE64 = 0.62). PET data were reconstructed as described previously. Inveon Research Workplace software version 4.0 (Siemens, Erlangen, Germany) was used for data analysis. All frames were summed, and PET images were co-registered with an MRI template. A whole brain volume of interest (VOI) based on the MRI template was generated. Radioactivity concentrations were converted to SUV values and plotted as time-activity curves (TAC).
# [3] = Radioactive metabolites in plasma and brain by radio-TLC; format: in vivo; settings: mice, 45 min p.i.
# Procedure: as §8, with “A whole brain volume of interest (VOI) based on the MRI template was generated.” left out
# P-gp [4] = assay: In vivo P-gp substrate classification from knockout mice and/or tariquidar-treated rats; settings: for Substrate In Vivo: brain-to-plasma or AUC ratio in at least one strain; for P-gp substrate classification in vivo: cutoff value of 2 for brain-to-plasma and AUC ratios
# [5] = parameters: method as in PMID 26043236; settings: pH 7.4; cited from earlier work
# [6] = after 5 min; cited from earlier work
# P-gp (human MDR1) = test system: T3, P-gp (human MDR1); assay: Bidirectional transport of tritiated compounds in MDCKII-MDR1 cells; format: in vitro ADME; settings: dog, MDCK-MDR1
# T3 construct: host or cells: MDCKII (canine kidney) cells transfected with human MDR1 cDNA
# T2 sequence (P08183 whole entry): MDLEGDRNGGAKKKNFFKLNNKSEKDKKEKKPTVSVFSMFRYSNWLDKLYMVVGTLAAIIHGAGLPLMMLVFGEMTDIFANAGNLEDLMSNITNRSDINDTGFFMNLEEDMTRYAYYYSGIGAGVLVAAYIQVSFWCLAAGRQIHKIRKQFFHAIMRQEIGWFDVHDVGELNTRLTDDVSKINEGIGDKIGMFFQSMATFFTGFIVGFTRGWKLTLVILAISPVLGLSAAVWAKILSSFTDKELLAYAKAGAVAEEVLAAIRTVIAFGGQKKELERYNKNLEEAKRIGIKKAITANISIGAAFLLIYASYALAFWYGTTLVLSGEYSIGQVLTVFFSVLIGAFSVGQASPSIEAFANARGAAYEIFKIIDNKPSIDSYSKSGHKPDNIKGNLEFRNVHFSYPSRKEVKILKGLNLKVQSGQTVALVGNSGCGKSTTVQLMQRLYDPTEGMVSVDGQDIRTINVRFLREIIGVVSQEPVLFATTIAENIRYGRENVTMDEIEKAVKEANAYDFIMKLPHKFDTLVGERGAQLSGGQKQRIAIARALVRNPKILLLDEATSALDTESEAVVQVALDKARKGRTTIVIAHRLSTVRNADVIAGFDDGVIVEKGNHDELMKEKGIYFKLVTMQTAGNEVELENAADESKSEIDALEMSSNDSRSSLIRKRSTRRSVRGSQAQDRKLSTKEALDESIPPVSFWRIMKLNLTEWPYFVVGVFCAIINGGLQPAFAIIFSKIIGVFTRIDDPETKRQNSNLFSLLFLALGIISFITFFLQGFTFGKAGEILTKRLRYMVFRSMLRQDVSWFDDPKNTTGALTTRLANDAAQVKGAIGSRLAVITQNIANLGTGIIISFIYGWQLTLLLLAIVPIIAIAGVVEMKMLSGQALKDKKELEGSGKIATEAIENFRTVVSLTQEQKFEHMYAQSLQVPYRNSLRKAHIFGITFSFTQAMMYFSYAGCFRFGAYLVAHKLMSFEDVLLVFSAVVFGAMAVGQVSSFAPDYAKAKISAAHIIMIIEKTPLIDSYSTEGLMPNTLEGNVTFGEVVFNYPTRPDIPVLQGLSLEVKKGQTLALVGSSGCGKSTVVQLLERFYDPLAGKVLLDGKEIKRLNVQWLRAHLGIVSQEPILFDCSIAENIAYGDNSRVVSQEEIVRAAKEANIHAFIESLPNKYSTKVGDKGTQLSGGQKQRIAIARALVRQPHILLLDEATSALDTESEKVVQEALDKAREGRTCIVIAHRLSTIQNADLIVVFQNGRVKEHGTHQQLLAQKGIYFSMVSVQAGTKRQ
# T1 sequence (P08183 whole entry): as above
structure (smiles),measurement,setting,value
"COc1cc2c(cc1OC)CN(CCCCOc1ccc(-c3ccc(OCCF)cc3)cc1)CC2 [KE64, 2-(4-(4′-(2-Fluoroethoxy)biphenyl-4-yloxy)butyl)-6,7-dimethoxy-1,2,3,4-tetrahydroisoquinoline]",Papp values in both directions (A → B and B → A),"P-gp [1]; MDCKII-MDR1 cells, all Papp values",< 3 ×10⁻⁶ cm/s
same,"efflux ratio at 2 h, 0.01 µM",P-gp (MDR1),1.9
same,EC50,P-gp [2],14 nM
same,logD,Log D7.4,3.2
same,Difference in whole brain time-activity curves (SUV) between knockout and wild-type,P-gp and/or Bcrp,1.6 fold
same,P-gp substrate behaviour in vivo,P-gp and/or Bcrp,moderate P-gp substrate in vivo
same,P-gp substrate behaviour in vivo,P-gp and/or Bcrp; listed as [^18F]KE64,substrates for P-gp and/or Bcrp in vivo
same,Fraction of intact parent compound in plasma,[3],26%
same,Substrate In Vivo,P-gp [4],+ (in vivo brain-to-plasma or AUC ratio > 2 in at least one strain)
same,P-gp substrate classification in vivo,P-gp [4],weak substrates
"COc1cc2c(cc1OC)CN(CC/C=C1\CCCc3c(OCCF)cccc31)CC2 [MC198, (E)-2-(3-(5-(2-Fluoroethoxy)-3,4-dihydronaphthalen-1(2H)-ylidene)propyl)-6,7-dimethoxy-1,2,3,4-tetra-hydroisoquinoline]",Substrate In Vitro,P-gp [1]; MDCKII-MDR1 cells,+ (Definition as substrate (+) in vitro was ER > 2)
same,P-gp substrate behaviour in vitro,P-gp [1]; MDCKII-MDR1 cells,some affinity but very low capacity for P-gp mediated transport
same,ER 0.01 µM,P-gp [1]; MDCKII-MDR1 cells,above 2
same,"efflux ratio at 2 h, 1 µM","P-gp (MDR1); dog, MDCKII-MDR1 cells, 1 µM",< 2
same,"efflux ratio at 2 h, 50 µM","P-gp (MDR1); dog, MDCKII-MDR1 cells",< 2
same,"efflux ratio at 2 h, 0.01 µM",P-gp (MDR1),2.1
same,EC50,P-gp [2],270 nM
same,logD,Log D7.4,2.3
same,Difference in whole brain time-activity curves (SUV) between knockout and wild-type,P-gp and/or Bcrp,1.7 fold
same,P-gp substrate behaviour in vivo,P-gp and/or Bcrp,substrates for P-gp and/or Bcrp in vivo
same,Fraction of intact parent compound in plasma,[3],34%
same,Substrate In Vivo,P-gp [4],+ (in vivo brain-to-plasma or AUC ratio > 2 in at least one strain)
same,P-gp substrate classification in vivo,P-gp [4],weak substrates
COc1cc2c(cc1OC)CN(Cc1ccc(-c3ccc(OCCF)cc3)cc1)CC2 [MC224],Log D7.4,[5],2.9
COc1cc2c(cc1OC)CN(CCCC1CCCc3c(OCCF)cccc31)CC2 (stereo not shown) [MC225],Substrate In Vivo,P-gp [4],+ (in vivo brain-to-plasma or AUC ratio > 2 in at least one strain)
same,Log D7.4,[5],3.0
"COc1ccc(CCN(CCF)CCC[C@](C#N)(c2ccc(OC)c(OC)c2)C(C)C)cc1OC [N-FeVer, (R)-N-[^18F]fluoroethylverapamil]",Substrate In Vitro,P-gp [1]; MDCKII-MDR1 cells,+ (Definition as substrate (+) in vitro was ER > 2)
same,Recovery of radioactivity,P-gp [1],≥ 76%
same,"efflux ratio at 2 h, 0.01 µM",P-gp (MDR1),2.8
same,EC50,P-gp [2],1100 nM
same,Substrate In Vivo,P-gp [4],+ (in vivo brain-to-plasma or AUC ratio > 2 in at least one strain)
same,Log D7.4,[5],2.0
same,"Parent compound, of total activity in plasma",[6],46%
"COc1ccc([C@@](C#N)(CCCNCCc2ccc(OCCF)c(OC)c2)C(C)C)cc1OC [O-FeVer, (R)-O-[^18F]fluoroethylnorverapamil]",ER after inhibition with ketoconazole,"P-gp [1]; MDCKII-MDR1 cells, 0.01 µM + ketoconazole 25 µM",higher than 2
same,Substrate In Vitro,P-gp [1]; MDCKII-MDR1 cells,+ (Definition as substrate (+) in vitro was ER > 2)
same,P-gp substrate behaviour in vitro,P-gp [1]; MDCKII-MDR1 cells,behaved like a P-gp substrate
same,ER 0.01 µM,P-gp [1]; MDCKII-MDR1 cells,> 30
same,Recovery of radioactivity,P-gp [1],≥ 76%
same,"Papp A→B at 2 h, 0.01 µM","P-gp (MDR1); dog, MDCKII-MDR1 cells, 0.01 µM",< 2 ×10⁻⁶ cm/s
same,"Papp A→B at 2 h, 1 µM","P-gp (MDR1); dog, MDCKII-MDR1 cells, 1 µM",< 2 ×10⁻⁶ cm/s
same,"efflux ratio at 2 h, 1 µM","P-gp (MDR1); dog, MDCKII-MDR1 cells, 1 µM",> 30
same,"efflux ratio at 2 h, 50 µM","P-gp (MDR1); dog, MDCKII-MDR1 cells",> 2
same,"efflux ratio at 2 h, 0.01 µM",P-gp (MDR1),37
same,EC50,P-gp [2],2400 nM
same,Substrate In Vivo,P-gp [4],+ (in vivo brain-to-plasma or AUC ratio > 2 in at least one strain)
same,Log D7.4,[5],1.6
same,"Parent compound, of total activity in plasma",[6],20%
"C[C@H]1O[C@@H](O[C@H]2[C@@H](O)C[C@H](O[C@H]3[C@@H](O)C[C@H](O[C@H]4CC[C@@]5(C)[C@H](CC[C@@H]6[C@@H]5C[C@@H](O)[C@]5(C)[C@@H](C7=CC(=O)OC7)CC[C@]65O)C4)O[C@@H]3C)O[C@@H]2C)C[C@H](O)[C@@H]1O [[^3H]Digoxin, digoxin]","Papp A→B at 2 h, 0.05 µM",P-gp (human MDR1),< 1 ×10⁻⁶ cm/s
same,"Papp B→A at 2 h, 0.05 µM",P-gp (human MDR1),> 15 ×10⁻⁶ cm/s
